Results as given in PubChem BioAssay (NCI).
“And” between values parts separate entries of the source, which are not always exact repeats. Equal values may be shown once.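 Values below derive from 48-hour exposures of cells grown in 96-well plates, with endpoints linearly interpolated between the two concentrations bracketing the appropriate inhibition level. GI50 marks 50% less growth. TGI is the concentration that stops growth completely.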

Experiments:
Test in all cases: NCI tumour cell line growth inhibition, 48 h
HCC-2998 colon = test system: HCC-2998 colon
M19-MEL melanoma = test system: M19-MEL melanoma
NCI-H460 lung = test system: NCI-H460 lung
SNB-19 CNS = test system: SNB-19 CNS
NCI-H226 lung = test system: NCI-H226 lung
OVCAR-5 ovarian = test system: OVCAR-5 ovarian
SNB-75 CNS = test system: SNB-75 CNS
DLD-1 colon = test system: DLD-1 colon
A498 renal = test system: A498 renal
DU-145 prostate = test system: DU-145 prostate
MDA-MB-435 = test system: MDA-MB-435

Compound	TGI (HCC-2998 colon) [µM]	TGI (M19-MEL melanoma) [µM]	TGI (NCI-H460 lung)	TGI (SNB-19 CNS) [µM]	TGI (NCI-H226 lung) [µM]	TGI (OVCAR-5 ovarian) [µM]	TGI (SNB-75 CNS) [µM]	TGI (DLD-1 colon) [µM]	TGI (A498 renal) [µM]	TGI (DU-145 prostate) [µM]	TGI (MDA-MB-435) [µM]	GI50 (HCC-2998 colon) [µM]	GI50 (NCI-H460 lung) [µM]	GI50 (SNB-19 CNS) [µM]	GI50 (DU-145 prostate) [µM]	GI50 (MDA-MB-435) [µM]	GI50 (NCI-H226 lung) [µM]	GI50 (OVCAR-5 ovarian) [µM]	GI50 (SNB-75 CNS) [µM]	GI50 (A498 renal) [µM]
CCN(CC)CCO[Si](OCCN(CC)CC)(OCCN(CC)CC)OCCN(CC)CC	> 100	> 100	> 100 µM	> 100	> 100	> 100	> 100	> 100												
CCOC(=O)C1=C(C)N(Cc2ccccc2)C2(O)C=CC(=O)C3=C(O)c4ccccc4C(=O)C312 (stereo not given)	31.1		24.4 µM	88.7	54.4	31.7	55.4		60.3	38.3	27.5									
C[C@H](CCC(=O)NCC(=O)O)[C@H]1CC[C@H]2[C@@H]3[C@H](O)C[C@@H]4C[C@H](O)CC[C@]4(C)[C@H]3CC[C@]12C	> 100		> 100 µM	> 100	> 100	> 100	> 100		> 100	> 100	> 100									
CCNC(=S)N/N=C(\C)c1cccc(C)n1	28.9		26.4 µM	> 100	47.9	> 100	> 100		45.3	73.1	> 100									
FC(F)(F)c1ccc2nc(Sc3ccc4ccccc4c3)cnc2c1	> 100		> 100 µM	> 100	> 100	> 100	> 100		> 100	> 100	> 100									
O=c1[nH]c2ccc([N+](=O)[O-])cc2nc1/C=C(\O)c1ccccc1	> 100		16.5 µM	31.8	> 100	> 100	58.3		47.4	> 100	> 100									
CC1(C)CC(=O)C2=C(C1)OC1(CC2c2ccc(Cl)cc2)CC(c2ccc(Cl)cc2)C2=C(CC(C)(C)CC2=O)O1 (stereo not given)	38.5		> 65.1 µM	54.6	42.1	> 79.1	37.1		31	46.4	33.7									
CC/C(=C\c1ccc(OC)cc1)c1ccc(OC)cc1	> 100		> 100 µM	> 100	> 100	> 100	> 100		> 100	> 100	> 100									
O=C(CCC1CCCCN1)Nc1ccc2c(c1)C(=O)c1ccc(NC(=O)CCN3CCCCC3)cc1C2=O (stereo not given)		5.71	23.9 µM		18.6	11.2	16.4	6.37	16.2											
Cc1csc(-n2c(C)nc3cc(Cl)ccc3c2=O)n1	> 100		> 100 µM	> 100	> 100	> 100	> 100		> 100	> 100	> 100									
CCOC(C)OC1CC(n2cc(C)c(=O)[nH]c2=O)OC1CO (stereo not given)	> 100	> 100	> 100 µM	> 100	> 100	> 100		> 100	> 100											
C(=C/c1nc2ccccc2o1)/c1ccc2c(c1)OCO2	> 70.8	> 100	> 100 µM	38.6	55.2	> 100	> 63.8	> 100	56.8											
COC(=O)C1c2cc3c(c(O)c2C(O)CC1(C)O)C(=O)c1c(O)cc2c(c1C3=O)OC1OC2(C)C(O)C(N(C)C)C1O (stereo not given)		> 100	> 100 µM	> 100	> 31.9		> 20.9	> 100		3.44										
CN1CCN([C@H]2C[C@H]3[C@@H]4CC=C5C[C@@H](O)CC[C@]5(C)[C@H]4CC[C@]3(C)[C@H]2O)CC1	> 100		> 59.2 µM	> 62	> 100	> 82.8	97.4		> 100	> 100	31									
Cc1ccc2c(c1C)C(=O)/C(=C/c1cccc(C)c1C(=O)O)C2	> 100		> 100 µM	> 100	> 100	> 100	> 100		99.2	> 100	> 100									
CC[C@@]1(O)C(=O)OCc2c1cc1n(c2=O)Cc2c-1nc1ccccc1c2/C=N\NC(=O)C(N)Cc1c[nH]c2ccccc12 (stereo not given in full)	> 65.7		6.42 µM	1.74	11.9	> 87	1.83		2.76	> 100	> 87.9									

Compound	TGI (HCC-2998 colon) [µM]	TGI (M19-MEL melanoma) [µM]	TGI (NCI-H460 lung)	TGI (SNB-19 CNS) [µM]	TGI (NCI-H226 lung) [µM]	TGI (OVCAR-5 ovarian) [µM]	TGI (SNB-75 CNS) [µM]	TGI (DLD-1 colon) [µM]	TGI (A498 renal) [µM]	TGI (DU-145 prostate) [µM]	TGI (MDA-MB-435) [µM]	GI50 (HCC-2998 colon) [µM]	GI50 (NCI-H460 lung) [µM]	GI50 (SNB-19 CNS) [µM]	GI50 (DU-145 prostate) [µM]	GI50 (MDA-MB-435) [µM]	GI50 (NCI-H226 lung) [µM]	GI50 (OVCAR-5 ovarian) [µM]	GI50 (SNB-75 CNS) [µM]	GI50 (A498 renal) [µM]
COc1cc2c3c(cc(Cl)nc3c1OC)C(O)(CC(=O)c1ccccc1)C(=O)N2 (stereo not given)	35.7		43.1 µM	31.8	41.3	35.3	28.6		32.3	30.1	3.53									
O=C(NCCCCCN1CCC2(CCCCC2)CC1)C(C1CCCCC1)C1CCCCC1	2.57		6.46 µM	12.5	11.8	17.7	9.48		9.42	9.75	3.74									
O=C1C(c2c(O)[nH]c3ccc(S(=O)(=O)NCCO)cc23)=Nc2ccccc21	> 100		> 100 µM	> 100	> 100	> 100	7.43		9.07	46.8	> 100									
CC1OC(=O)C(C(C)C)NC(=O)C(C(C)C)OC(=O)C(C(C)C)NC(=O)C(C)OC(=O)C(C(C)C)NC(=O)C(C(C)C)OC(=O)C(C(C)C)NC(=O)C(C)OC(=O)C(C(C)C)NC(=O)C(C(C)C)OC(=O)C(C(C)C)NC1=O (stereo not given)	1.29	6.28	0.182 µM and 0.185 µM	1.25	0.779		0.00378	2.05	0.0383			< 0.0001	< 0.0001	< 0.0001						
Cc1ccc(NC(=O)CC(=O)n2nc(C)c(N=Nc3cccc(C)c3)c2C)cc1	> 100		> 100 µM	> 100	> 100	> 100	62.3		> 100	> 100	> 100									
CC(C)(C)[Si](C)(C)OC[C@H](/C=C\CCCC(=O)O)NC1(c2ccccc2)c2ccccc2-c2ccccc21	37.2		59.8 µM	> 100	26	76.6	> 100		32.1	> 100	39.3									
CCOc1cc2c(cc1O)C(N)C[C@@H]1[C@@H]2CC[C@]2(C)[C@@H](O)CC[C@@H]12 (stereo not given in full)	> 100		> 100 µM	> 100	> 100	> 100	95.4		> 100	> 100	52.4				> 100	16.2				
C=C1C(=O)OC2C3OC(C)(CCC(O)C3COC(C)=O)CC(OC(=O)/C(=C/C)COC(C)=O)C12 (stereo not given)	2.59		2.22 µM	18.3	8.4	1.12	18.1		3.05	2.04	12.6									
Nc1cc2c3c(cccc3c1)C(=O)N(c1ccc(OCCN3CCCC3)cc1)C2=O	31.3		23.7 µM	41.9	33.2	46.3	25.3		91.5	> 92.8	42.4									
O=S(=O)(O)c1cc(S(=O)(=O)O)c2c(N=Nc3ccc(N=Nc4ccccc4)cc3)c(O)ccc2c1	> 100		> 100 µM	> 100	> 100	> 100	> 100		> 100	> 100	> 100									
N#Cc1nc(-c2cccc(-c3nc(C#N)c(N)o3)n2)oc1N	> 100		> 100 µM	> 100	> 100	> 100	> 100		> 100	> 100	> 100									
COc1ccc(CNc2nc3ccccc3nc2C(=O)O)cc1	> 100		> 100 µM	> 100	> 100	> 100	> 100		> 100	> 100	> 100									
CCCCCCCCCCCCO[P+](=O)OCCCCCCCCCCCC	> 100		> 100 µM	> 100	> 100	> 100	> 100		> 100	> 100	> 100									
COc1ccc2c(c1)CCC/C2=N\NS(=O)(=O)c1c(C)cc(C)cc1C	> 100		95.3 µM	> 100	59.8	> 100	58.9		77	68.1	> 100									
NS(=O)(=O)c1ccc(N=Nc2ccc(O)c(C(=O)O)c2)cc1	> 100		> 100 µM	> 100	> 100	> 100	> 100		> 100	> 100	> 100									
COc1ccc(C2=NC(c3ccc(Cl)cc3)C(c3ccc(Cl)cc3)N2C(=O)N2CCNC(=O)C2)c(OC(C)C)c1 (stereo not given)	5.57		3.82 µM	4.91	4.19	5.54	4.8		3.55	3.54	3.63	2.3	1.95	2.08	1.8	1.92	2.08	2.23	2.37	1.89
